US4438036A, “β-Lactam antibiotics their preparation and their use” (priority 1980, dated 1984)
≈ marks a conversion by molar mass, not a printed value. Like-named read-outs stand apart in the source and are kept apart here.

Columns and labels:
Experiment in all cases: Antibacterial effectiveness in a standard microtitre test (MIC)
Assay type in all cases: cell-based
Escherichia coli 0111 = system: Escherichia coli 0111
Source text: (§1) Antibacterial effectiveness of the compounds of the Examples in a standard microtitre test.

[1] = system: Staphylococcus aureus 1517
Source text: as §1

Escherichia coli JT 4 R+ = system: Escherichia coli JT 4 R+
Source text: as §1

Proteus morganii I580 = details: Morganella morganii
Source text: as §1

Proteus rettgeri WM16 = details: Providencia rettgeri
Source text: as §1

[2] = system: Staphylococcus aureus Oxford
Source text: as §1

Pseudomonas aeruginosa A = system: Pseudomonas aeruginosa A
Source text: as §1

[3] = system: Salmonella typhimurium CR10; details: Salmonella enterica
Source text: as §1

Streptococcus faecalis I = details: Enterococcus faecalis
Source text: as §1

Serratia marcescens US20 = system: Serratia marcescens US20
Source text: as §1

Shigella sonnei MB 11967 = details: MB11967
Source text: as §1

Enterobacter cloacae N1 = system: Enterobacter cloacae N1
Source text: as §1

[4] = system: Klebsiella aerogenes Ba 95 R+
Source text: as §1

Escherichia coli ESS = system: Escherichia coli ESS
Source text: as §1

Escherichia coli JT 39 = details: JT39
Source text: as §1

Bacillus subtilis A = system: Bacillus subtilis A
Source text: as §1

Proteus vulgaris W091 = system: Proteus vulgaris W091
Source text: as §1

Proteus mirabilis C977 = system: Proteus mirabilis C977
Source text: as §1

Citrobacter freundii E8 = system: Citrobacter freundii E8
Source text: as §1

Klebsiella aerogenes A = system: Klebsiella aerogenes A
Source text: as §1

[5] = system: Streptococcus pyogenes CN10
Source text: as §1

[6] = system: Staphylococcus aureus Russell
Source text: as §1

[7] = system: Streptococcus pneumoniae CN33
Source text: as §1

[8] = Proteus morganii I580, read-out: MIC
[9] = Proteus rettgeri WM16, read-out: MIC
[10] = Staphylococcus aureus Oxford, read-out: MIC
[11] = Pseudomonas aeruginosa A, read-out: MIC
[12] = Salmonella typhimurium CR10, read-out: MIC
[13] = Streptococcus faecalis I, read-out: MIC
[14] = Bacillus subtilis A, read-out: MIC

Structure (SMILES) | MIC (Escherichia coli 0111) [mg/L] | MIC ([1]; read-out: MIC) [mg/L] | MIC (Proteus morganii I580; [8]) [mg/L] | MIC (Proteus rettgeri WM16; [9]) [mg/L] | MIC [2, 10] [mg/L] | MIC (Pseudomonas aeruginosa A; [11]) [mg/L] | MIC [3, 12] [mg/L] | MIC (Streptococcus faecalis I; [13]) [mg/L] | MIC (Serratia marcescens US20; read-out: MIC) [mg/L] | MIC (Shigella sonnei MB 11967) [mg/L] | MIC (Enterobacter cloacae N1; read-out: MIC) [mg/L] | MIC (Escherichia coli ESS; Escherichia coli) [mg/L] | MIC (Escherichia coli JT 39; Escherichia coli) [mg/L] | MIC (Bacillus subtilis A; [14]) [mg/L] | MIC (Proteus vulgaris W091; read-out: MIC) [mg/L] | MIC (Proteus mirabilis C977; read-out: MIC) [mg/L] | MIC (Citrobacter freundii E8; read-out: MIC) [mg/L] | MIC (Klebsiella aerogenes A; Klebsiella aerogenes) [mg/L] | MIC [5] [mg/L] | MIC (Proteus morganii I580; I580) [mg/L] | further results
CC(=O)N/C=C/SC1=C(C(=O)O)N2C(=O)[C@H]([C@@H](C)N)[C@H]2C1 [Example 2, (5R,6R)-3-[E-2-acetamidoethenylthio]-6-[(R)-1-aminoethyl]-7-oxo-1-azabicyclo[3.2.0]hept-2-ene-2-carboxylic acid] | 0.5 (≈ 1.61 µM) | 8 (≈ 25.7 µM) | 8 (≈ 25.7 µM) | 4 (≈ 12.8 µM) | 0.5 (≈ 1.61 µM) | 62 (≈ 199 µM) | 1 (≈ 3.21 µM) | 4 (≈ 12.8 µM) | 2 (≈ 6.42 µM) | 1 (≈ 3.21 µM) | 2 (≈ 6.42 µM) | 0.2 (≈ 0.642 µM) | 0.5 (≈ 1.61 µM) | 0.2 (≈ 0.642 µM) | 4 (≈ 12.8 µM) | 4 (≈ 12.8 µM) | 2 (≈ 6.42 µM) | 0.5 (≈ 1.61 µM) |  |  | MIC (Escherichia coli JT 4 R+): 2 mg/L (≈ 6.42 µM); MIC [4]: 2 mg/L (≈ 6.42 µM)
CC(=O)N/C=C/SC1=C(C(=O)[O-])N2C(=O)[C@H]([C@@H](C)O)[C@H]2C1.[Na+] [Example 5, Sodium (5R,6S)-3-(E-2-acetamidoethenylthio)-6-[(R)-1-hydroxyethyl]-7-oxo-1-azabicyclo[3.2.0]hept-2-ene-2-carboxylate] | ≤ 0.5 |  |  |  |  |  |  |  |  | ≤ 1 |  | > 0.2 | 0.2 |  |  |  |  | 0.5 | 0.5 | 2 | MIC (Proteus rettgeri WM16; WM16): 2 mg/L; MIC ([2]; Staphylococcus aureus): 0.2 mg/L; MIC (Pseudomonas aeruginosa A; Pseudomonas aeruginosa): 125 mg/L; MIC ([3]; TYPHIMURIUM): 0.5 mg/L; MIC (Streptococcus faecalis I): 8 mg/L; MIC (Serratia marcescens US20): 2 mg/L; MIC (Enterobacter cloacae N1): 1 mg/L; MIC ([6]; Staphylococcus aureus): ≤ 0.5 mg/L; MIC (Bacillus subtilis A; Bacillus subtilis): 0.2 mg/L; MIC (Proteus vulgaris W091): 2 mg/L; MIC (Proteus mirabilis C977): 2 mg/L; MIC [7]: 0.2 mg/L; MIC (Citrobacter freundii E8): 0.5 mg/L
CC(=O)N/C=C/SC1=C(C(=O)[O-])N2C(=O)[C@H]([C@@H](C)OC=O)[C@H]2C1.[Na+] [Example 6, Sodium (5R,6S)-3-(E-2-acetamidoethenylthio)-6-[(R)-1-formyloxyethyl]-7-oxo-1-azabicyclo[3.2.0]hept-2-ene-2-carboxylate] | 1.6 |  |  |  |  |  |  |  |  | 1.6 |  | 0.4 | 0.8 |  |  |  |  | 1.6 | 0.2 | 6.2 | MIC [1]: 12.5 mg/L; MIC (Proteus rettgeri WM16; WM16): 3.1 mg/L; MIC ([2]; Staphylococcus aureus): 0.8 mg/L; MIC (Pseudomonas aeruginosa A; Pseudomonas aeruginosa): 100 mg/L; MIC ([3]; TYPHIMURIUM): 3.1 mg/L; MIC (Streptococcus faecalis I): 12.5 mg/L; MIC (Serratia marcescens US20): 3.1 mg/L; MIC (Enterobacter cloacae N1): 6.2 mg/L; MIC ([6]; Staphylococcus aureus): 0.4 mg/L; MIC (Bacillus subtilis A; Bacillus subtilis): 0.8 mg/L; MIC (Proteus vulgaris W091): 3.1 mg/L; MIC (Proteus mirabilis C977): 6.2 mg/L; MIC [7]: 0.1 mg/L; MIC (Citrobacter freundii E8): 1.6 mg/L
CC(=O)NCCSC1=C(C(=O)O)N2C(=O)[C@H]([C@@H](C)N)[C@H]2C1 [Example 8, (5R,6R)-3-(2-Acetamidoethylthio)-6-[(R)-1-aminoethyl]-7-oxo-1-azabicyclo[3.2.0]hept-2-ene-2-carboxylic acid] | 16 (≈ 51.1 µM) | 31 (≈ 98.9 µM) | 16 (≈ 51.1 µM) | 16 (≈ 51.1 µM) | 4 (≈ 12.8 µM) | 62 (≈ 198 µM) | 8 (≈ 25.5 µM) | 16 (≈ 51.1 µM) | 16 (≈ 51.1 µM) | 8 (≈ 25.5 µM) | 16 (≈ 51.1 µM) |  |  | 4 (≈ 12.8 µM) | 16 (≈ 51.1 µM) | 31 (≈ 98.9 µM) | 16 (≈ 51.1 µM) |  |  |  | MIC ([5]; read-out: MIC): 2 mg/L (≈ 6.38 µM); MIC (Escherichia coli ESS; Escherichia coli ESS, read-out: MIC): 4 mg/L (≈ 12.8 µM); MIC (Escherichia coli JT 39; Escherichia coli JT 39, read-out: MIC): 8 mg/L (≈ 25.5 µM); MIC ([6]; Staphylococcus aureus Russell, read-out: MIC): 2 mg/L (≈ 6.38 µM); MIC ([7]; read-out: MIC): 2 mg/L (≈ 6.38 µM); MIC (Klebsiella aerogenes A; Klebsiella aerogenes A, read-out: MIC): 8 mg/L (≈ 25.5 µM)
